The target in one experiment is cdk2 (Homo sapiens, UniProt P24941). Conditions: Lackey et al., 2000; cited from earlier work.
Experiment [1] relates to cerebellar granule neurons. Description: Methylmercury-induced cell death in cerebellar granule neurons. To be noted: HK + 0.5 uM methylmercury, different concentrations of GW5074, 24 hours. The experiment is classed as cell-based, rat.
Another experiment has as its system B-Raf. The experiment can be described thus: Activity of B-Raf immunoprecipitated from neuronal lysates, MEK substrate. The experiment is classed as cell-based, rat. Conditions: LK + 1 uM GW5074, 1 hour. Here is the method: The reaction mixture was subjected to Western analysis using a phospho-MEK antibody as probe.
(§1) Activities of endogenous C-Raf and B-Raf activity was assayed by measuring the ability of kinase immunoprecipitated from neuronal lysates to phosphorylate a kinase-dead recombinant GST-MEK1 substrate. Following immunoprecipitation and multiple washes with lysis buffer, lysis buffer supplemented with 350 mM NaCl, and kinase buffer (25 mM HEPES pH 7.4 and 10 mM MgCl2), in vitro kinase assays are performed on the immune complexes using purified recombinant GST-MEK1 K97M protein as a substrate in kinase buffer supplemented with 85 μM ATP for 35 minutes at 30° C. Reactions are stopped by the addition of 3×SDS sample buffer and boiled for five minutes. Proteins are resolved by SDS-PAGE and subjected to Western blotting. The level of phosphorylated MEK is detected by a phospho-MEK antibody.

For the next experiment, the system named is mice. The experiment can be described thus: 3-Nitropropionic acid (3-NP) model of Huntington's disease, striatal lesions. It is filed as in vivo. Conditions: GW5074 5 mg/kg body weight intraperitoneally. An excerpt: 3-Nitropropionic acid (3-NP) administration in rodents and nonhuman primates has served as a useful experimental model for HD (reviewed in Brouillet et al., 1999). 3-NP is an irreversible inhibitor of succinate dehydrogenase (SDH; Complex II), which causes prolonged mitochondrial energy impairment and replicates most of the clinical and pathophysiological hallmarks of HD including selective striatal degeneration, spontaneous choreiform and dystonic movements (Brouillet et al., 1999).
Mice were purchased from Charles River (Wilmington, Mass.). 3-NP was dissolved in water and the solution brought to pH 7.4 with sodium hydroxide. 3NP was administered to 8-week old B6CBA male mice in ten intraperitoneal injections (50 mg/kg twice a day for 5 days). […] Control animals received saline injections. On the day following the 5 days of injection, mice were deeply anesthetized, intracardially perfused, brains removed, post fixed in 4% paraformaldehyde and cryoprotected. Coronal sections were cut on a cryostat at 50 micron and stained for Nissl substance (cresyl violet).

Another experiment concerns Forkhead. The experiment can be described thus: Forkhead dephosphorylation in LK. Conditions: data not shown. The experiment is classed as cell-based, rat. On the procedure:
The best-studied anti-apoptotic pathway in neurons is the PI-3 kinase-Akt signaling pathway (D'Mello et al., 1997; Dudek et al., 1997; Miller et al, 1997a). IGF-1, a potent survival-promotic factor for granule neurons mediates its effect by activating the PI-3 kinase-Akt pathway (Datta et al., 1997; Dudek et al., 1997; D'Mello et al., 1998). […] Switching cerebellar granule neurons from serum-containing HK medium in which they are cultured and allowed to mature, to serum-free LK or HK medium, causes a rapid downregulation of Akt phosphorylation and activity, which can be prevented by IGF-1 (Kumari et al., 2001). […] The same blot was reprobed with an antibody against phospho-Gskβ. Also loaded on the gel were lysates from untreated cultures (maintained in medium containing serum and high K+) and a culture treated for 1 hour with 25 ng/ml IGF-1. […] GSK3βis a proapoptotic molecule that is activated during apoptosis in many neuronal and normeuronal systems. Under survival promoting conditions GSK3β is kept inactivated by phosphorylation, a modification that can be induced by Akt. […] Another proapoptotic molecule that is phosphorylated and inactivated by Akt is the transcription factor, Forkhead ([…] et al., 2002). […] Switching of neurons to LK medium leads to a rapid downregulation of Akt activity within 2 hours.

The subject of experiment [2] is cerebellar granule neurons. Description: Apoptosis of neurons transfected with dominant-negative B-Raf or LacZ in LK plus GW5074. It is filed as cell-based, rat. To be noted: LK + 1 uM GW5074, 24 hours. On the procedure: A dominant-negative […] expression vector, pSRa GST B-Raf S728A (full length human B-Raf with Serine to Alanine mutation at position 728) was gifted to us by Dr. Angus M. MacNicol, University of Arkansas for Medical Sciences, Little Rock, Ark. Neuronal cultures were transfected with CMV-LacZ or the dominant-negative B-Raf construct using the calcium phosphate method 5 days after plating of the cultures. […] The proportion of transfected neurons that were apoptotic was quantified 24 hours later.

For experiment [3], the target named is T1, C-Raf (Rattus norvegicus, UniProt P11345).
T1 construct: Activities of endogenous C-Raf and B-Raf activity was assayed by measuring the ability of kinase immunoprecipitated from neuronal lysates; endogenous in cells; host or cells: primary rat cerebellar granule neurons
T1 sequence (P11345 whole entry): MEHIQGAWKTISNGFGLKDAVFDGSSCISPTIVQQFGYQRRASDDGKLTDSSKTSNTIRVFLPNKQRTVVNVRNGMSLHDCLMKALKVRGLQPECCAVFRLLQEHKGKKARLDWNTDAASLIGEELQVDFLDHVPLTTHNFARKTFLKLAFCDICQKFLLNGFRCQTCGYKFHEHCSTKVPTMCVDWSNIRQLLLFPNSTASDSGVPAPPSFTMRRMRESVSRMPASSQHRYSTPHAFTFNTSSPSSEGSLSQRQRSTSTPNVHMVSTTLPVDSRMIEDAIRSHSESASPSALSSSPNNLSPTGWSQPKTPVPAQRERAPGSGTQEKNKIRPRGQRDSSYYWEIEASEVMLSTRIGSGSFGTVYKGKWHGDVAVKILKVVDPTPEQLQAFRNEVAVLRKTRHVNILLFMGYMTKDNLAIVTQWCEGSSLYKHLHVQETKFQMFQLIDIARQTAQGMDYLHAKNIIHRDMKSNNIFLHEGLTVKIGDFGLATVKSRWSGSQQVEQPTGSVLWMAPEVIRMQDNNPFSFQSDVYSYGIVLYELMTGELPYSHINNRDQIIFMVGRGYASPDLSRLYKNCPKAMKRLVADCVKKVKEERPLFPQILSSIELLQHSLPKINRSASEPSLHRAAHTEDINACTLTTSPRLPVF
The experiment can be described thus: C-Raf Ser259 phosphorylation in neuronal cultures, Western blot. It is filed as cell-based. To be noted: LK + 1 uM GW5074, 0-30 min. On the technique in general: A western blot detects proteins with antibodies after separation by electrophoresis.
Experimental: The cultures were lysed and the lysate subjected to Western blot analysis using a phopho-Ser259-specific antibody.
For whole-cell lysates, the culture medium was discarded, the neurons washed twice with ice-cold phosphate-buffered saline (PBS), and lysed in lysis buffer (1% Triton, 20 mM Tris-HCl (pH 7.5), 150 mM NaCl, 1 mM Na2EDTA, 1 mM EGTA, 2.5 mM sodium pyrophosphate, 1 mM beta-glycerophosphate, 1 mM Na3VO4, 1 μg/ml leupeptin and 1× protease inhibitor mixture). Protein concentrations were measured using a Bradford protein assay kit (Bio-Rad), and equivalent amounts of protein were mixed with 6×SDS-PAGE sample buffer. Following heating at 95° C. for 5 min, proteins were subjected to SDS-polyacrylamide gel electrophoresis and transferred electrophoretically to polyvinylidene difluoride membrane (PVDF; Bio Rad). After staining with Ponceau S to verify uniformity of protein loads/transfer, the membranes were analyzed for immunoreactivity. Incubation with primary antibodies was performed overnight at 4° C. and with secondary antibodies for 1 h at room temperature. Immunoreactivity was developed by enhanced chemiluminescence (ECL; Amersham) and visualized by autoradiography. All antibodies were from Cell Signaling.

The target of experiment [4] is T1, C-Raf. Description: Activity of C-Raf immunoprecipitated from neuronal lysates, GST-MEK substrate, phospho-MEK Western. The experiment is classed as cell-based. Here is the method:
The immunoprecipitated C-Raf was used in in vitro kinase assays using GST-MEK as substrate and the reaction products subjected to Western analysis. Phosphorylation of MEK was detected using a phospho-MEK antibody. […] After 1 hour of treatment, the cultures were lysed, C-Raf immunoprecipitated from the lysate and used in an in vitro kinase assay with MEK as substrate. The reaction mixture was subjected to Western analysis using a phospho-MEK antibody as probe.
(Hall-Jackson et al., 1999). […] Lysates from the cultures were used in a kinase reaction with MEK as substrate. […] Phosphorylation of MEK was detected by Western blot analysis using an phospho-MEK antibody and the same blot was reprobed with a C-Raf antibody.
After treatment, cultures of 7-8-day old neurons were washed twice with ice-cold PBS and lysed in ice cold lysis buffer. The lysates were centrifuged for 10 min at 10,000 rpm at 4° C. Protein concentrations of the supernatant were measured using a Bradford protein assay kit (Bio-Rad), and equivalent amounts of protein were incubated overnight with primary antibody (1.0-2 ug) and then for 2 h with 20 ul Protein A/G PLUS-Agarose (Santa Cruz Biotech.) Immunoprecipitates were collected by centrifugation at 2,500 rpm for 5 min at 4° C. and washed three times with lysis buffer, and pellets resuspended in electrophoresis sample buffer (187.5 mM Tris-HCl (pH 6.8 at 25° C.), 6% SDS, 30% glycerol, 150 mM DTT, 0.03% bromophenol blue), boiled for 4 min and subjected to SDS-polyacrylamide gel electrophoresis.
as §1

The test system of experiment [5] is cerebellar granule neurons. The experiment can be described thus: MPP+-induced cell death in cerebellar granule neurons. It is filed as cell-based, rat. To be noted: HK + 200 uM MPP+, different concentrations of GW5074, 24 hours.
In the next experiment the target is VEGFR2 (Homo sapiens, UniProt P35968). Conditions: Lackey et al., 2000; cited from earlier work.
Chain of VEGFR2 (P35968 20-1356, species assumed): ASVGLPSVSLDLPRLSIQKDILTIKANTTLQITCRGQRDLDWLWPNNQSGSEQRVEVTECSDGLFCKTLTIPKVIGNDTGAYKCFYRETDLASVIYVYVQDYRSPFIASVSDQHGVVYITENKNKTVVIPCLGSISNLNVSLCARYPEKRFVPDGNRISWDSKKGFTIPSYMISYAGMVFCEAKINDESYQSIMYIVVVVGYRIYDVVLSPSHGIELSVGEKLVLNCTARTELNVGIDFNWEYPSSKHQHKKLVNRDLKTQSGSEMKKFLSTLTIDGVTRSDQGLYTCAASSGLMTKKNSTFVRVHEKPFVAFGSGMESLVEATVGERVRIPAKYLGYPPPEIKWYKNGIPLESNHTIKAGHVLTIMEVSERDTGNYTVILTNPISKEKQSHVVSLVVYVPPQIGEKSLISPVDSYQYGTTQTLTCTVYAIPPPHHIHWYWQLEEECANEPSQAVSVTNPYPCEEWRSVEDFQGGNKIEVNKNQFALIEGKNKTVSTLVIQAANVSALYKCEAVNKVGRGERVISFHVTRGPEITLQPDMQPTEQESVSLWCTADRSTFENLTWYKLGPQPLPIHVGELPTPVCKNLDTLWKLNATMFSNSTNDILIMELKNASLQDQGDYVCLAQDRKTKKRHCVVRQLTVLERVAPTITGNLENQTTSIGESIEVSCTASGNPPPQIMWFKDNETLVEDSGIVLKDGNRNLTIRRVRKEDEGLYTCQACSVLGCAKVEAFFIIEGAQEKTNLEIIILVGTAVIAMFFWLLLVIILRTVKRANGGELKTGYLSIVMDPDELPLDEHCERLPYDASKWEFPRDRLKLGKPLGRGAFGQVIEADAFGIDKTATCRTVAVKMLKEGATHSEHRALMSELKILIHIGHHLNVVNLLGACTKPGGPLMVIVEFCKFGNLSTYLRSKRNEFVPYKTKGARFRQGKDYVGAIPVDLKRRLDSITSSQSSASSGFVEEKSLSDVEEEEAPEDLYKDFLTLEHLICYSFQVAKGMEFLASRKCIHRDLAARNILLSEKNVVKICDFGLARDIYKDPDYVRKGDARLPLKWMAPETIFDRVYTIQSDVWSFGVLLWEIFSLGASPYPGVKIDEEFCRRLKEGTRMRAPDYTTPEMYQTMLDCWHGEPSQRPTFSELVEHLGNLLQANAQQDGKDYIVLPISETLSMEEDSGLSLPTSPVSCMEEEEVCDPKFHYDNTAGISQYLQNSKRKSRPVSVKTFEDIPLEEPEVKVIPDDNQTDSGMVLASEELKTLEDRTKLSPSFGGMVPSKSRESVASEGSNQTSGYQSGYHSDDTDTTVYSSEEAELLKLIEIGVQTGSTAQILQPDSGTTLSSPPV

SMILES strings stand for the structures.

For `O=C1Nc2ccc(I)cc2C1=Cc1cc(Br)c(O)c(Br)c1` [GW5074, 5-Iodo-3-[(3,5-dibromo-4-hydroxyphenyl)methylene]-2-indolinone], at cdk2, the “effect on activity of cdk2” value is “no effect”. The methylmercury-induced cell death result in experiment [1] is given as “reduced methylmercury-induced cell death”. In addition, in the experiment on B-Raf, the “B-Raf activity in neurons” value is “elevated further”. Also, in the experiment on mice, the 3-NP-induced striatal degeneration result was “completely prevented”. Moreover, in the experiment with Forkhead, the “dephosphorylation of Forkhead in LK” value is given as “reduces the dephosphorylation”. Besides, in experiment [2] (LacZ control), the death of neurons result is recorded as “less than 10%”. Also, in experiment [2] (dominant-negative B-Raf, data not shown), the “death of infected neurons” value was determined as 80%. Also, at C-Raf [3], the “phosphorylation of C-Raf at Ser259” value is listed as “rapid increase in Ser259 phosphorylation”. Besides, the “concentration inhibiting immunoprecipitated C-Raf when added in vitro” value at C-Raf [4] (GW5074 added to the immunoprecipitated enzyme in the kinase reaction) is reported as “lower than 1 uM”. For the same compound, the “activity of C-Raf immunoprecipitated from treated cultures” value at C-Raf [4] (LK + GW5074 0.25-5 uM, 1 hour) is “marked induction”. Moreover, the “MPP+-induced cell death” value in experiment [5] was “reduced MPP^+-induced cell death”. The “effect on activity of VEGFR2” value at VEGFR2 is reported as “no effect”.

These data come from patent US20050250837A1, “Use of C-Raf inhibitors for the treatment of neurodegenerative diseases” (priority 2002, published 2005).
